According to patent US20140243292A1, “SUBSITUTED 2-(CHROMAN-6-YLOXYL)-THIAZOLES AND THEIR USE AS PHARMACEUTICALS” (Sanofi, priority 2011, published 2014):
pIC50: −log10 of the molar value. Where a name gives a salt, the structure may show the parent alone.

Molecular target: T1, human NCX1 (Homo sapiens, UniProt P32418)
T1 construct: expressed in transfected cells
Test: NCX1 inhibition, reverse mode (Ca2+ influx into cells), FLIPR Fluo-4 assay
Type: cell-based
Settings: inhibition of NCX1 in reverse mode (Ca2+ influx into cells); read-out: NCX1rv IC50
Description: The sodium/calcium exchanger NCX1 can transport calcium ions and sodium ions through the cell membrane. The transport is an exchange of Ca^2+ and Na^+ in two directions depending on membrane potential and ion gradients. At the first direction, named “forward mode” or “calcium export mode”, Ca^2+ is transported out of the cell and Na^+ is transported into the cell. At the other direction, named “reverse mode” or “calcium import mode”, the transport directions are vice versa. The effect of the compounds of the invention on NCX1 was determined in CHO cells stably expressing human NCX1 (gene symbol SLC8A1; cf. WO 2009/115238). The assay is based on the monitoring of intracellular Ca^2+ concentrations using a calcium-sensitive fluorescence dye which is detected by means of a FLIPR device (Fluorimetric Imaging Plate Reader, Molecular Devices).
The assay is based on the monitoring of intracellular Ca^2+ concentrations using the calcium-sensitive dye Fluo-4. CHO cells expressing NCX1 were loaded with the dye by means of the acetoxymethyl ester Fluo-4 AM (Invitrogen, F14202), which is cleaved intracellularly by esterase activity to yield the charged species of free Fluo-4. After an preincubation period with the test compound, Gramicidine (Sigma, G5002) was added. Gramicidine is an ionophor for Na^+ ions mediating an increase of intracellular Na^+ ions. Consequently, intracellular Na^+ ions are exchanged against extracellular Ca^2+ ions (Ca^2+ influx, reverse mode). The intracellular elevation of Ca^2+ ions was detected by measuring the fluorescence of Fluo-4 at a wavelength of 520 nm by a FLIPR device.
Briefly, for the reverse mode transport assay 18000 cells per well were seeded into a 96 well microplate (Corning COSTAR 3904) and incubated overnight in culture medium (1× Nut Mix F12 (Ham) (Gibco, 21765-029); 10% (v/v) fetal calf serum (PAA Gold, A15-649); 450 μg/ml Geneticin (Gibco, 10131-027)). A total volume of 100 μl medium per well was used. For the preparation of the FLIPR assay, the culture medium was removed from the plates and 100 μl of dye solution (2 μM Fluo-4 AM; 0.02% (v/v) Pluronic F-127 (20%, Invitrogen, P3000MP); 0.1% (v/v) bovine albumin solution (30% (v/v), Sigma, A9205) in assay buffer (133.8 mM NaCl (Sigma, S5886); 4.7 mM KCl (Sigma, P3911); 1.25 mM MgCl2 (Merck, 1.05833.0250); 3.5 mM CaCl2 (Merck, 1.02083.0250); 5 mM glucose (Sigma, G7021); 10 mM Hepes (Sigma, H4034); 0.01% (v/v) Pluronic F-127 (5%, Sigma, P2443); 2.5 mM Probenecid (Maybridge, SB00915EB); pH 7.4)) were added into each well. The plates were incubated in the dark at room temperature for 80 min. After the incubation period, the dye solution was removed and the wells were washed with 100 μl of assay buffer. Then 80 μl of a solution of the test compound in assay buffer in different concentrations were added into the wells. The plates were incubated at 16° C. for 45 min. Meanwhile a 60 μM solution of Gramicidine in assay buffer (4° C.) was prepared and stored in the wells of a 96 well microplate (96 well microplate, polypropylene, U-shape (Greiner Bio-One, 650201)) at 4° C. until measurement was started. The fluorescence monitoring was performed at 240 measuring points with measurement intervals of 2 sec. After the fifth measuring point, 40 μl of the Gramicidine solution were added to each well of the assay plates to give a final Gramicidine concentration of 20 μM. For the determination of the IC50 values the minimal fluorescence value was subtracted from the maximal fluorescence value for all measuring points. The calculation of the IC50 values via the percentage inhibitions of Ca^2+ influx into cells (reverse mode) effected by the test compound was performed in Biost@t Speed 2.0.

Compound	pIC50
O=C(Cn1cccn1)NCc1cnc(Oc2ccc3c(c2)CCC(c2ccccc2)O3)s1 (stereo not shown) [compound 92]	5.96
CCn1ccc(C(=O)NCc2cnc(Oc3ccc4c(c3)CCC(c3ccccc3)O4)s2)n1 (stereo not shown) [compound 93]	6.30
Cc1noc(C)c1CCC(=O)NCc1cnc(Oc2ccc3c(c2)CCC(c2ccccc2)O3)s1 (stereo not shown) [compound 94]	6.05
O=C(CN1C(=O)CNC1=O)NCc1cnc(Oc2ccc3c(c2)CCC(c2ccccc2)O3)s1 (stereo not shown) [compound 95]	6.22
CC(C)Oc1cccc(C2CCc3cc(Oc4ncc(C(=O)NCc5ccncc5)s4)ccc3O2)c1 (stereo not shown) [compound 96]	6.10
Cc1noc(C)c1CCNC(=O)c1cnc(Oc2ccc3c(c2)CCC(c2cccc(OC(C)C)c2)O3)s1 (stereo not shown) [compound 97]	5.92
Cc1nc(Oc2ccc3c(c2)CC[C@@H](c2ccccc2)O3)sc1C(=O)NCc1ccncc1 [compound 98, hydrochloride]	6.52
CCCCN(C)Cc1cnc(Oc2ccc3c(c2)CCC(c2ccccc2)O3)s1 (stereo not shown) [compound 99]	6.15
C[C@@H]1CN(Cc2cnc(Oc3ccc4c(c3)CCC(c3ccccc3)O4)s2)C[C@H](C)O1 (stereo partly shown) [compound 100]	6.00
CC(C)CNCc1cnc(Oc2ccc3c(c2)CCC(c2ccccc2)O3)s1 (stereo not shown) [compound 101]	6.40
CN1CCN(Cc2cnc(Oc3ccc4c(c3)CCC(c3ccccc3)O4)s2)CC1=O (stereo not shown) [compound 102]	6.40
c1ccc(C2CCc3cc(Oc4ncc(CN5CCCC5)s4)ccc3O2)cc1 (stereo not shown) [compound 104]	6.40
CC(NCc1cnc(Oc2ccc3c(c2)CCC(c2ccccc2)O3)s1)C(C)(C)C (stereo not shown) [compound 105]	6.10
CCC(CC)NCc1cnc(Oc2ccc3c(c2)CCC(c2ccccc2)O3)s1 (stereo not shown) [compound 106]	6.30
FC(F)(F)CNCc1cnc(Oc2ccc3c(c2)CCC(c2ccccc2)O3)s1 (stereo not shown) [compound 107]	6.70
c1ccc(C2CCc3cc(Oc4ncc(CN5CC6CCC(CC6)C5)s4)ccc3O2)cc1 (stereo not shown) [compound 108]	5.85
FC1(F)CCN(Cc2cnc(Oc3ccc4c(c3)CCC(c3ccccc3)O4)s2)CC1 (stereo not shown) [compound 109]	6.15
c1ccc(C2CCc3cc(Oc4ncc(CNC5CCC5)s4)ccc3O2)cc1 (stereo not shown) [compound 110]	6.70
Cc1cc(NCc2cnc(Oc3ccc4c(c3)CCC(c3ccccc3)O4)s2)on1 (stereo not shown) [compound 111]	6.10
CCC(C)(C)NCc1cnc(Oc2ccc3c(c2)CCC(c2ccccc2)O3)s1 (stereo not shown) [compound 112]	6.52
CC(C)NCc1cnc(Oc2ccc3c(c2)CCC(c2ccccc2)O3)s1 (stereo not shown) [compound 113]	6.52

Compound	pIC50
COCCNCc1cnc(Oc2ccc3c(c2)CCC(c2ccccc2)O3)s1 (stereo not shown) [compound 114]	6.70
CC(C)CCNCc1cnc(Oc2ccc3c(c2)CCC(c2ccccc2)O3)s1 (stereo not shown) [compound 115]	6.22
CCCNCc1cnc(Oc2ccc3c(c2)CCC(c2ccccc2)O3)s1 (stereo not shown) [compound 116]	6.70
c1ccc(C2CCc3cc(Oc4ncc(CN5CCOCC5)s4)ccc3O2)cc1 (stereo not shown) [compound 117]	6.52
CC(C)(C)NCc1cnc(Oc2ccc3c(c2)CCC(c2ccccc2)O3)s1 (stereo not shown) [compound 118]	6.40
CN(C)Cc1cnc(Oc2ccc3c(c2)CCC(c2ccccc2)O3)s1 (stereo not shown) [compound 119]	6.40
c1ccc(C2CCc3cc(Oc4ncc(CNCC5CC5)s4)ccc3O2)cc1 (stereo not shown) [compound 120]	6.52
c1ccc(C2CCc3cc(Oc4ncc(CN5C6CCC5CC6)s4)ccc3O2)cc1 (stereo not shown) [compound 121]	6.22
CN1CCN(Cc2cnc(Oc3ccc4c(c3)CCC(c3ccccc3)O4)s2)CC1 (stereo not shown) [compound 122]	6.10
CN1CCOc2cc(S(=O)(=O)NCc3cnc(Oc4ccc5c(c4)CCC(c4ccccc4)O5)s3)ccc21 (stereo not shown) [compound 123]	5.96
Cc1nc2ccc(S(=O)(=O)NCc3cnc(Oc4ccc5c(c4)CCC(c4ccccc4)O5)s3)cc2s1 (stereo not shown) [compound 124]	6.05
Cc1nc(C)c(S(=O)(=O)NCc2cnc(Oc3ccc4c(c3)CCC(c3ccccc3)O4)s2)s1 (stereo not shown) [compound 126]	6.22
Cc1ncc(S(=O)(=O)NCc2cnc(Oc3ccc4c(c3)CCC(c3ccccc3)O4)s2)n1C (stereo not shown) [compound 127]	5.96
Cn1nccc1S(=O)(=O)NCc1cnc(Oc2ccc3c(c2)CCC(c2ccccc2)O3)s1 (stereo not shown) [compound 128]	6.52
Cn1cc(S(=O)(=O)NCc2cnc(Oc3ccc4c(c3)CCC(c3ccccc3)O4)s2)cn1 (stereo not shown) [compound 129]	6.05
Cc1c(S(=O)(=O)NCc2cnc(Oc3ccc4c(c3)CCC(c3ccccc3)O4)s2)cnn1C(C)C (stereo not shown) [compound 130]	6.15
Cc1n[nH]c(C)c1S(=O)(=O)NCc1cnc(Oc2ccc3c(c2)CCC(c2ccccc2)O3)s1 (stereo not shown) [compound 131]	4.62
CCn1cc(S(=O)(=O)NCc2cnc(Oc3ccc4c(c3)CCC(c3ccccc3)O4)s2)cn1 (stereo not shown) [compound 132]	6.52
Cc1c(S(=O)(=O)NCc2cnc(Oc3ccc4c(c3)CCC(c3ccccc3)O4)s2)cnn1C (stereo not shown) [compound 133]	6.40
Cc1cnc(CNCc2cnc(Oc3ccc4c(c3)CCC(c3ccccc3)O4)s2)cn1 (stereo not shown) [compound 135]	6.30
Cc1ccn(CCNCc2cnc(Oc3ccc4c(c3)CCC(c3ccccc3)O4)s2)n1 (stereo not shown) [compound 136]	6.30

Compound	pIC50
Cc1nn(C)cc1CNCc1cnc(Oc2ccc3c(c2)CCC(c2ccccc2)O3)s1 (stereo not shown) [compound 137]	6.40
Cc1c(CNCc2cnc(Oc3ccc4c(c3)CCC(c3ccccc3)O4)s2)cnn1C (stereo not shown) [compound 138]	6.52
CCn1cc(CNCc2cnc(Oc3ccc4c(c3)CCC(c3ccccc3)O4)s2)c(C)n1 (stereo not shown) [compound 139]	6.30
Cc1cc(CNCc2cnc(Oc3ccc4c(c3)CCC(c3ccccc3)O4)s2)no1 (stereo not shown) [compound 140]	6.70
Cc1cc(CNCc2cnc(Oc3ccc4c(c3)CCC(c3ccccc3)O4)s2)n(C)n1 (stereo not shown) [compound 141]	6.40
c1ccc(C2CCc3cc(Oc4ncc(CNCCCn5cccn5)s4)ccc3O2)cc1 (stereo not shown) [compound 142]	6.52
Cc1cc(C)nc(CNCc2cnc(Oc3ccc4c(c3)CCC(c3ccccc3)O4)s2)n1 (stereo not shown) [compound 143]	6.30
C1=C(CNCc2cnc(Oc3ccc4c(c3)CCC(c3ccccc3)O4)s2)N2CCCN=C2S1 (stereo not shown) [compound 144]	6.10
c1ccc(C2CCc3cc(Oc4ncc(CNCc5cccnc5N5CCOCC5)s4)ccc3O2)cc1 (stereo not shown) [compound 145]	6.05
Cn1nccc1CNCc1cnc(Oc2ccc3c(c2)CCC(c2ccccc2)O3)s1 (stereo not shown) [compound 146]	6.70
Cc1cc(CNCc2cnc(Oc3ccc4c(c3)CCC(c3ccccc3)O4)s2)nn1C (stereo not shown) [compound 147]	6.52
Cc1c(C(C)NCc2cnc(Oc3ccc4c(c3)CCC(c3ccccc3)O4)s2)cnn1C (stereo not shown) [compound 148]	6.40
c1ccc(C2CCc3cc(Oc4ncc(CNCCn5cccn5)s4)ccc3O2)cc1 (stereo not shown) [compound 149]	6.52
Cc1cc(C)n(CCNCc2cnc(Oc3ccc4c(c3)CCC(c3ccccc3)O4)s2)n1 (stereo not shown) [compound 150]	6.10
Cc1csc(CCNCc2cnc(Oc3ccc4c(c3)CCC(c3ccccc3)O4)s2)n1 (stereo not shown) [compound 151]	6.40
Cc1noc(C)c1CNCc1cnc(Oc2ccc3c(c2)CCC(c2ccccc2)O3)s1 (stereo not shown) [compound 152]	6.52
Cc1noc(C)c1CCCNCc1cnc(Oc2ccc3c(c2)CCC(c2ccccc2)O3)s1 (stereo not shown) [compound 153]	6.30
Oc1cc(CNCc2cnc(Oc3ccc4c(c3)CCC(c3ccccc3)O4)s2)ccn1 (stereo not shown) [compound 154]	6.52
Nc1cc(CNCc2cnc(Oc3ccc4c(c3)CCC(c3ccccc3)O4)s2)ccn1 (stereo not shown) [compound 155]	6.40
